In ChEMBL document CHEMBL1201862, “PubChem BioAssay data set” (2004):
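Assay format: 96-well plates, 48-hour exposure. GI50: concentration for 50% inhibition of growth.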 Active and inactive are the calls of the source. Rule as the data show it: active = GI50 up to about 1.1 µM and inactive = higher.

Legend:
Assay in all cases: DTP human tumour cell line panel, 48 h
RXF 631 = tested on: RXF 631
M19-MEL = tested on: M19-MEL
HOP-18 = tested on: HOP-18
LXFL 529 = tested on: LXFL 529
SR = tested on: SR
BT-549 = tested on: BT-549
DU-145 = tested on: DU-145
MCF7 = tested on: MCF7
T47D = tested on: T47D

SMILES	GI50 (RXF 631)	GI50 (M19-MEL)	GI50 (HOP-18)	GI50 (LXFL 529)	GI50 (SR)	GI50 (BT-549)	GI50 (DU-145)	GI50 (MCF7)	GI50 (T47D)
COC(=O)c1cc2c(s1)C(=O)c1ccccc1-2	> 100 µM (inactive)	> 100 µM (inactive)	> 100 µM (inactive)	> 100 µM (inactive)	–	–	–	–	–
C=C1C(=O)O[C@@H]2C[C@@]3(C)[C@H](O)CCC(=C)[C@@H]3C[C@H]12 [ASPERILIN]	13.6 µM (inactive)	6.68 µM (inactive)	–	2.75 µM (inactive)	3.14 µM (inactive)	–	–	–	–
CCCCCCCCCCCC(=O)OCC(C[As](=O)(O)O)OC(=O)CCCCCCCCCCC (stereo unspecified)	–	4.25 µM (inactive)	3.93 µM (inactive)	2.06 µM (inactive)	3.64 µM (inactive)	7.1 µM (inactive)	17.5 µM (inactive)	3.93 µM (inactive)	14.7 µM (inactive)
C[C@]12CC[C@H](OC3CCCCO3)CC1=CC[C@@H]1C2CC[C@]2(C)/C(=N/OCCC#N)CCC12 (stereo partly specified)	33.6 µM (inactive)	> 100 µM (inactive)	> 100 µM (inactive)	17.7 µM (inactive)	–	–	–	–	–
C#CCN1C(=O)CN2C(Cl)(Cl)C2(c2ccccc2)c2cc(Cl)ccc21 (stereo unspecified)	–	84.3 µM (inactive)	> 100 µM (inactive)	> 100 µM (inactive)	40.3 µM (inactive)	–	–	–	–
COc1ccc(C2C3C(=O)C=CC(=O)C3[C@@H]2C)cc1OC (stereo partly specified)	> 100 µM (inactive)	> 100 µM (inactive)	> 100 µM (inactive)	42.4 µM (inactive)	–	–	–	–	–
O=C1N(C2CCCCC2)CC12CCCCC2	> 100 µM (inactive)	> 100 µM (inactive)	94.6 µM (inactive)	–	–	–	–	–	–
O=C(O)CNS(=O)(=O)c1ccc(NC(=O)c2ccc(F)cc2)cc1	> 100 µM (inactive)	> 100 µM (inactive)	> 100 µM (inactive)	> 100 µM (inactive)	–	–	–	–	–
c1ccc2c(c1)nnn2CNc1ccc(N2CCOCC2)cc1	–	> 100 µM (inactive)	> 100 µM (inactive)	> 100 µM (inactive)	43.3 µM (inactive)	–	–	–	–
COc1cc(C2C(C(=O)NCc3ccccc3)=C(C)NC(C)=C2C(=O)NCc2ccccc2)ccc1O	27.3 µM (inactive)	39.4 µM (inactive)	–	28.6 µM (inactive)	20.2 µM (inactive)	–	–	–	–
N#CC1(c2nc3ccccc3o2)C(=O)C(=O)N(C2C3CC4CC(C3)CC2C4)C(=O)C1=O (stereo unspecified)	–	> 100 µM (inactive)	> 100 µM (inactive)	> 100 µM (inactive)	> 100 µM (inactive)	–	–	–	–
CCOc1ccc(NC(=O)C(=O)CC(=O)c2c(C)[n+]([O-])c3ccccc3[n+]2[O-])cc1	> 100 µM (inactive)	> 100 µM (inactive)	24.9 µM (inactive)	> 100 µM (inactive)	64.9 µM (inactive)	–	–	–	–
COc1ccc(OC)c(/C=C/NC=O)c1	–	> 100 µM (inactive)	> 100 µM (inactive)	> 100 µM (inactive)	22 µM (inactive)	–	> 100 µM (inactive)	–	–
CN(C)CC1CCCC1=O (stereo unspecified)	0.138 µM (active)	0.857 µM (active)	1.73 µM (inactive)	0.41 µM (active)	0.0479 µM (active)	4.97 µM (inactive)	17.5 µM (inactive)	0.408 µM (active)	3.65 µM (inactive)
O=c1c2ccccc2nc(-c2ccc(Br)cc2)n1NC1OC(CO)C(O)C(O)C1O (stereo unspecified)	> 100 µM (inactive)	> 100 µM (inactive)	> 100 µM (inactive)	45.1 µM (inactive)	–	–	–	–	–
CCC1=CCN(c2ccc(C)cc2)OC1c1ccc(OC)cc1 (stereo unspecified)	52.4 µM (inactive)	42.7 µM (inactive)	–	62.4 µM (inactive)	47.4 µM (inactive)	–	–	–	–
CN(C)/N=C(/c1nc2ccc(Cl)cc2nc1O)C(O)c1ccc(C(O)/C(=N\N(C)C)c2nc3ccc(Cl)cc3nc2O)cc1 (stereo unspecified)	91.4 µM (inactive)	> 100 µM (inactive)	–	–	38 µM (inactive)	–	–	–	–
C(=C\c1csnn1)/c1cccnc1	81.7 µM (inactive)	> 100 µM (inactive)	> 100 µM (inactive)	75.7 µM (inactive)	–	–	–	–	–
COc1c2c(nc3ccccc13)-c1cc3c(c(=O)n1C2)COC(=O)C3(O)CC(=O)N1CCOCC1 (stereo unspecified)	–	5.58 µM (inactive)	18 µM (inactive)	13.9 µM (inactive)	0.23 µM (active)	5.62 µM (inactive)	3.3 µM (inactive)	1.06 µM (active)	3.63 µM (inactive)
CSc1nc2nc(C)c(C)nc2c(=O)[nH]1	–	> 100 µM (inactive)	> 100 µM (inactive)	> 100 µM (inactive)	> 100 µM (inactive)	–	–	–	–
Cc1ccccc1N1C(=O)C2C=CC(n3[nH]c(=O)n(Cc4ccccc4)c3=O)CC2C1=O (stereo unspecified)	–	> 100 µM (inactive)	> 100 µM (inactive)	> 100 µM (inactive)	–	–	–	–	–
